{
  "source": "patent US20250382277A1",
  "about": "“SMALL MOLECULE INHIBITORS OF DYRK/CLK AND USES THEREOF” (Arizona Board of Regents on Behalf of the University of …, priority 2022, published 2025)",
  "data": [
    {"test_system": "WNT signaling", "assay": "WNT reporter assay (TopGFP reporter)", "type": "cell-based", "settings": "Human Colonic Epithelial Cells (HCEC) with TopGFP reporter, stimulated with 10 μM CHIR99021, 24 hours", "excerpt": "KDs were obtained from Eurofins.", "units": {"EC50": "nM"}, "values": [
      {"smiles": "Nc1cc(-c2ccc3ncnc(-c4ccc(N5CCOCC5)c(F)c4)c3n2)ccn1", "note": "[Compound 12, 4-(4-(3-fluoro-4-morpholinophenyl)pyrido[3,2-d]pyrimidin-6-yl)pyridin-2-amine]", "EC50": "< 100"},
      {"smiles": "Cc1cc(-c2ncnc3ccc(-c4ccnc(N)c4)cc23)ccc1N1CCN(C)CC1", "note": "[Compound 61, 4-(4-(3-methyl-4-(4-methylpiperazin-1-yl)phenyl)quinazolin-6-yl)pyridin-2-amine]", "EC50": "100 to 1000"},
      {"smiles": "CC(=O)N1CC2(C1)CN(c1ccc(-c3ncnc4ccc(-c5ccnc(N)c5)cc34)cc1F)C2", "note": "[Compound 58, 1-(6-(4-(6-(2-aminopyridin-4-yl)quinazolin-4-yl)-2-fluorophenyl)-2,6-diazaspiro[3.3]heptan-2-yl)ethan-1-one]", "EC50": "< 100"},
      {"smiles": "Nc1cc(-c2ccc3nccc(-c4cnc(N5CCOCC5)c(F)c4)c3c2)ccn1", "note": "[Compound 13, 4-(4-(5-fluoro-6-morpholinopyridin-3-yl)quinolin-6-yl)pyridin-2-amine]", "EC50": "100 to 1000"},
      {"smiles": "Nc1cc(-c2ccc3ncnc(-c4ccc(N5CC6(C5)CN(C5COC5)C6)c(F)c4)c3c2)ccn1", "note": "[Compound 57, 4-(4-(3-fluoro-4-(6-(oxetan-3-yl)-2,6-diazaspiro[3.3]heptan-2-yl)phenyl)quinazolin-6-yl)pyridin-2-amine]", "EC50": "100 to 1000"},
      {"smiles": "CN1CCN(c2ccc(-c3ncnc4ccc(-c5ccnc(N)c5)cc34)cc2Cl)CC1", "note": "[Compound 62, 4-(4-(3-chloro-4-(4-methylpiperazin-1-yl)phenyl)quinazolin-6-yl)pyridin-2-amine]", "EC50": "< 100"},
      {"smiles": "Nc1cc(-c2ccc3ncnc(-c4ccc(N5CCN(CC6COC6)CC5)c(F)c4)c3c2)ccn1", "note": "[Compound 64, 4-(4-(3-fluoro-4-(4-(oxetan-3-ylmethyl)piperazin-1-yl)phenyl)quinazolin-6-yl)pyridin-2-amine]", "EC50": "< 100"},
      {"smiles": "CC(=O)N1CCN(c2ccc(-c3ncnc4ccc(-c5cn[nH]c5)cc34)cc2)CC1", "note": "[Compound 37, 1-(4-(4-(6-(1H-pyrazol-4-yl)quinazolin-4-yl)phenyl)piperazin-1-yl)ethan-1-one]", "EC50": "< 100"},
      {"smiles": "CS(=O)(=O)N1CCN(c2ccc(-c3ncnc4ccc(-c5ccnc(N)c5)cc34)cc2Cl)CC1", "note": "[Compound 59, 4-(4-(3-chloro-4-(4-(methylsulfonyl)piperazin-1-yl)phenyl)quinazolin-6-yl)pyridin-2-amine]", "EC50": "< 100"},
      {"smiles": "CN[C@H]1CCN(c2ccc(-c3ncnc4ccc(-c5ccnc(N)c5)cc34)cc2F)C1", "note": "[Compound 60, (S)-4-(4-(3-fluoro-4-(3-(methylamino)pyrrolidin-1-yl)phenyl)quinazolin-6-yl)pyridin-2-amine]", "EC50": "> 1000"},
      {"smiles": "CS(=O)(=O)N1CCN(c2ccc(-c3ncnc4ccc(-c5ccnc(N)c5)cc34)cc2C(F)(F)F)CC1", "note": "[Compound 63, 4-(4-(4-(4-(methylsulfonyl)piperazin-1-yl)-3-(trifluoromethyl)phenyl)quinazolin-6-yl)pyridin-2-amine]", "EC50": "< 100"}
    ]},
    {"target": "DYRK1A (Homo sapiens, UniProt Q13627)", "assay": "biochemical", "settings": "not given", "units": {"Kd": "nM"}, "values": [
      {"smiles": "Nc1cc(-c2ccc3ncnc(-c4ccc(N5CCOCC5)c(F)c4)c3n2)ccn1", "note": "[Compound 12, 4-(4-(3-fluoro-4-morpholinophenyl)pyrido[3,2-d]pyrimidin-6-yl)pyridin-2-amine]", "Kd": "< 100"},
      {"smiles": "Nc1cc(-c2ccc3ncnc(-c4cc(F)cc(N5CCOCC5)c4)c3c2)ccn1", "note": "[Compound 5, 4-(4-(3-fluoro-5-morpholinophenyl)quinazolin-6-yl)pyridin-2-amine]", "Kd": "< 100"},
      {"smiles": "Nc1cc(-c2ccc3ncnc(-c4ccc(N5CCOCC5)nc4)c3c2)ccn1", "note": "[Compound 10, 4-(4-(6-morpholinopyridin-3-yl)quinazolin-6-yl)pyridin-2-amine]", "Kd": "< 100"},
      {"smiles": "Nc1cc(-c2ccc3ncnc(-c4ccc(CN5CCOCC5)cc4)c3c2)ccn1", "note": "[Compound 18, 4-(4-(4-(morpholinomethyl)phenyl)quinazolin-6-yl)pyridin-2-amine]", "Kd": "> 1000"},
      {"smiles": "Nc1cc(-c2ccc3ncnc(-c4ccc(N5CCS(=O)(=O)CC5)cc4)c3c2)ccn1", "note": "[Compound 6, 4-(4-(6-(2-aminopyridin-4-yl)quinazolin-4-yl)phenyl)thiomorpholine 1,1-dioxide]", "Kd": "< 100"},
      {"smiles": "CN1CCN(c2ccc(-c3ncnc4ccc(-c5ccnc(N)c5)cc34)cc2)CC1", "note": "[Compound 7, 4-(4-(4-(4-methylpiperazin-1-yl)phenyl)quinazolin-6-yl)pyridin-2-amine]", "Kd": "< 100"}
    ]}
  ]
}
